# Results from ChEMBL document CHEMBL4414553, “Imidazopyridine-based selective and multifunctional ligands of biological targets associated with psychiatric and neurodegenerative diseases” (Eur J Med Chem, 2019).
# Experiments:
# [1] = molecular target: T1, Sodium- and chloride-dependent glycine transporter 1 (Homo sapiens, UniProt P48067); experiment: Inhibition of GlyT1 (unknown origin)
# T1 sequence (P48067 whole entry): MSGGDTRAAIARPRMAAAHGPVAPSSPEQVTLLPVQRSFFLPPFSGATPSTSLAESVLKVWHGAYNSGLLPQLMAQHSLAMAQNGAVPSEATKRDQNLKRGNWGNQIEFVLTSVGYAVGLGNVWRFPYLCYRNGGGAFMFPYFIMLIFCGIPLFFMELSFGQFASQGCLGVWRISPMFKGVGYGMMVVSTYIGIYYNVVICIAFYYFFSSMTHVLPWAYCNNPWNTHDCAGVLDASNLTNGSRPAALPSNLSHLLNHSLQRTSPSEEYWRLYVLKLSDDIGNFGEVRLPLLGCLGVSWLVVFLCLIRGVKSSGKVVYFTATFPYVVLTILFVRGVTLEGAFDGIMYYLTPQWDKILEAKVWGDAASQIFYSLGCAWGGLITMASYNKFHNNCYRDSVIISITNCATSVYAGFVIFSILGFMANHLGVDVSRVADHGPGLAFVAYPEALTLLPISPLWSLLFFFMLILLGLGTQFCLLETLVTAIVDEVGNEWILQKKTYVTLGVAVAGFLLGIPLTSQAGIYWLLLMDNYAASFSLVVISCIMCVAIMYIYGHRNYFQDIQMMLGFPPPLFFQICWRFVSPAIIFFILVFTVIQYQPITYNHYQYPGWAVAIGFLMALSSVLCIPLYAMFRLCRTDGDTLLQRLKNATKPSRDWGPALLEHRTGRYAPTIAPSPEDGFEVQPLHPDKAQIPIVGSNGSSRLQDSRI
# [2] = molecular target: T2, Fatty-acid amide hydrolase 1 (Homo sapiens, UniProt O00519); experiment: Inhibition of FAAH (unknown origin)
# T2 sequence (O00519 whole entry): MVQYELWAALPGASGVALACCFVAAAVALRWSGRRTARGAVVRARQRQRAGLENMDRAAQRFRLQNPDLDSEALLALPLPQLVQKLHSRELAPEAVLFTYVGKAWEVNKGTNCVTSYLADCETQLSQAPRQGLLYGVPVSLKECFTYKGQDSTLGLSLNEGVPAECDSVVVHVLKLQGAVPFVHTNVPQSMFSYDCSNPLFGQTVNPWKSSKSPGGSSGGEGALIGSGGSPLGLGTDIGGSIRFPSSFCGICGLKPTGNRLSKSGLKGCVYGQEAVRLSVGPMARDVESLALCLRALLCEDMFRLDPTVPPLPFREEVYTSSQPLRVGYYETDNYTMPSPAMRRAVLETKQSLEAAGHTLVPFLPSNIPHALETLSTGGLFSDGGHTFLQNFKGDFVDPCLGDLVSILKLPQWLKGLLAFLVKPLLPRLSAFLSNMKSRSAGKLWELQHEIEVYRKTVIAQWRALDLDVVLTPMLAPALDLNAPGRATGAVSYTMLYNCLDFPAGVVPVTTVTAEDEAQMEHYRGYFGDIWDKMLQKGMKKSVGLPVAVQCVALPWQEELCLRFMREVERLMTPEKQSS
# Translocator protein = Translocator protein (Homo sapiens, UniProt P30536); experiment: Inhibition of TSPO (unknown origin)
# Sequence of Translocator protein (P30536 whole entry): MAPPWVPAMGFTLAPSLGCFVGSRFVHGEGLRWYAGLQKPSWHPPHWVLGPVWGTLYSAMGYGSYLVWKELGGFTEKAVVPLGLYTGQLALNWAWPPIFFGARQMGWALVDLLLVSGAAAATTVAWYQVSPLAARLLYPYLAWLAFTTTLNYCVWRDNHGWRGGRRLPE
# [3] = Inhibition of CBR (unknown origin); design: species or system Homo sapiens
# [4] = molecular target: Glycogen synthase kinase-3 (Homo sapiens, UniProt P49840+P49841); experiment: Inhibition of GSK3 (unknown origin); type: protein assay
# [5] = molecular target: T3, 5-hydroxytryptamine receptor 4 (Homo sapiens, UniProt Q13639); experiment: Inhibition of 5-HT4 receptor (unknown origin)
# T3 sequence (Q13639 whole entry): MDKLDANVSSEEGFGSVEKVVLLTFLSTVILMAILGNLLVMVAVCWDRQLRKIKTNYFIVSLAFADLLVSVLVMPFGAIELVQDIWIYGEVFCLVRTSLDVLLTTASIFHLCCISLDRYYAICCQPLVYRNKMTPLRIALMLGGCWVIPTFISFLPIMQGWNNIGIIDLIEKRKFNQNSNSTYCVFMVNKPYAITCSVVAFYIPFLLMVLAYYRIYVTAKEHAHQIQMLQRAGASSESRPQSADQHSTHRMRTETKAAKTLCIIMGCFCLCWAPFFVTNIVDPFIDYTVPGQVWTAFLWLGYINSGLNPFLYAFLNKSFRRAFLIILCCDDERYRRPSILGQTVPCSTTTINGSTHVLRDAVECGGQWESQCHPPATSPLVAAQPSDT
# [6] = Lipophilicity, log D of the compound; type: physicochemical; conditions: octanol/water
# [7] = Partition coefficient, log P of the compound; type: physicochemical; conditions: octanol/water
# [8] = molecular target: cAMP and cAMP-inhibited cGMP 3',5'-cyclic phosphodiesterase 10A (Homo sapiens, UniProt Q9Y233); experiment: Inhibition of human PDE10
# Sequence of cAMP and cAMP-inhibited cGMP 3',5'-cyclic phosphodiesterase 10A (Q9Y233 whole entry): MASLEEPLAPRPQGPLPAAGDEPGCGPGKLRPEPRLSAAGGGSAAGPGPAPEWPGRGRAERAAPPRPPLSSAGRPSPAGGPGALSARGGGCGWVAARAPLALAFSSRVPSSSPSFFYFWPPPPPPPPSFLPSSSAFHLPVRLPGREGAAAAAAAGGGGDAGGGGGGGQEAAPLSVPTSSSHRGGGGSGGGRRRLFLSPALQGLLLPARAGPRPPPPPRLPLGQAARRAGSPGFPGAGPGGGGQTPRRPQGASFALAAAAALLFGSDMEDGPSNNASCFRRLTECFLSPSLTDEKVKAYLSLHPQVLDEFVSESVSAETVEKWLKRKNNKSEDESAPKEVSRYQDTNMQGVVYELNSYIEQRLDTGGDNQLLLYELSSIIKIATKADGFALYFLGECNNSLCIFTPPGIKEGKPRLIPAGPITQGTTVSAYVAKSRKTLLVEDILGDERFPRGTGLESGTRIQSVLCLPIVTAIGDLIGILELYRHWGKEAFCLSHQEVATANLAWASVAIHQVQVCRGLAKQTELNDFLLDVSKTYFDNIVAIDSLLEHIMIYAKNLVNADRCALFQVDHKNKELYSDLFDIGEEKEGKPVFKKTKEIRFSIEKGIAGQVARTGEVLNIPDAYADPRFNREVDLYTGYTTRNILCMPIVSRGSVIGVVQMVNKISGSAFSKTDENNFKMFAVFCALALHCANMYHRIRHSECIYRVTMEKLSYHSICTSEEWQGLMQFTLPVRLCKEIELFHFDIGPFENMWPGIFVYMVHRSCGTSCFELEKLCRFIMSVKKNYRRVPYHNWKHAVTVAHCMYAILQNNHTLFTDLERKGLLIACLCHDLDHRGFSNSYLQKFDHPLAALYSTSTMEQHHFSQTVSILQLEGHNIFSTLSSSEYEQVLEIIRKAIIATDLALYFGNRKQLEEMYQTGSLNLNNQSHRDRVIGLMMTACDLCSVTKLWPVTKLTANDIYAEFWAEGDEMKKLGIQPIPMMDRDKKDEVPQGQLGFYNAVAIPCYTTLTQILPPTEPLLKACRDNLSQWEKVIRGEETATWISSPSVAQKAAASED
# Adenosine receptor A1 = molecular target: T4, Adenosine receptor A1 (Homo sapiens, UniProt P30542); experiment: Inhibition of human A1 receptor
# T4 sequence (P30542 whole entry): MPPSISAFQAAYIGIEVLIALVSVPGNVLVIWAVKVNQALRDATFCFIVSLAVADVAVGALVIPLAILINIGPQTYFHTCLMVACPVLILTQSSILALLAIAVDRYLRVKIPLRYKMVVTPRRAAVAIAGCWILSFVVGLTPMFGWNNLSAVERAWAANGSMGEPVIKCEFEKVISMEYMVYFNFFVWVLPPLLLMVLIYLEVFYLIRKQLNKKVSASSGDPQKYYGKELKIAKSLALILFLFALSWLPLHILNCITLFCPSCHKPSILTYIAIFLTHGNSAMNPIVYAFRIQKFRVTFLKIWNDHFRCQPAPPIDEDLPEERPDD
# Adenosine A2 receptor = Adenosine A2 receptor (Homo sapiens, UniProt P29275+P29274); experiment: Inhibition of GFP-tagged human A2 receptor expressed in HEK cells by FRET-binding assay; type: cell-based
# Mus musculus [9] = experiment: Inhibition of DYRK1A in mouse at 3 mg/kg relative to control; type: functional
# [10] = Inhibition of MARK (unknown origin); design: species or system Homo sapiens
# [11] = molecular target: Glutamate [NMDA] receptor; experiment: Modulator activity at NMDA receptor (unknown origin); type: protein-complex assay, Homo sapiens
# D(4) dopamine receptor = molecular target: T5, D(4) dopamine receptor (Homo sapiens, UniProt P21917); experiment: Agonist activity at dopamine D4 receptor (unknown origin)
# T5 sequence (P21917 whole entry): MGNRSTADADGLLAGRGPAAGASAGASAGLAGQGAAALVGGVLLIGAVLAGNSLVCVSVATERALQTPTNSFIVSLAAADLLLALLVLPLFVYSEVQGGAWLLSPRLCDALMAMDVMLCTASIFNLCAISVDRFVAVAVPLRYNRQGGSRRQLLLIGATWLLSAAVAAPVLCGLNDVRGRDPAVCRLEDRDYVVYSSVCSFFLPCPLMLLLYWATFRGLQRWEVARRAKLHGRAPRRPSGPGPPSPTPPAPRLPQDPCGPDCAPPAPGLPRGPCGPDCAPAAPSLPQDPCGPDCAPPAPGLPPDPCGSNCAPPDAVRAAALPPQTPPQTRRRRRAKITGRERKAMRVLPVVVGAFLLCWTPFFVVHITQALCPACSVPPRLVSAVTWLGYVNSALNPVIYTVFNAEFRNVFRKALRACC
# Histamine H3 receptor = Histamine H3 receptor (Cavia porcellus, UniProt Q9JI35); experiment: Inhibition of Guinea Pig Ileum H3R
# Sequence of Histamine H3 receptor (Q9JI35 whole entry): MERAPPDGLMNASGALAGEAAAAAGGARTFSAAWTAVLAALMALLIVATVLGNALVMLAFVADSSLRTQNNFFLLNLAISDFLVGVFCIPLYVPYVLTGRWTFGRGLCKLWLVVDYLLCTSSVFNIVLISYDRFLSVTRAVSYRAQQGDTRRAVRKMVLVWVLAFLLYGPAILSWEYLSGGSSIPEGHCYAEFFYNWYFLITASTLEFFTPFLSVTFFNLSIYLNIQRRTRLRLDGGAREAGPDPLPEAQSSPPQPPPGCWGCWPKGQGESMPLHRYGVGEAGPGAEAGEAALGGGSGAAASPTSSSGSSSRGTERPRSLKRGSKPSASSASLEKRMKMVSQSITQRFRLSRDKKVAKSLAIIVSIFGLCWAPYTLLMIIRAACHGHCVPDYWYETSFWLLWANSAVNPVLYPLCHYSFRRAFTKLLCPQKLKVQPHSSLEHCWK
# [12] = molecular target: T6, 5-hydroxytryptamine receptor 3A (Homo sapiens, UniProt P46098); experiment: Antagonist activity at 5-HT3 receptor (unknown origin)
# T6 sequence (P46098 whole entry): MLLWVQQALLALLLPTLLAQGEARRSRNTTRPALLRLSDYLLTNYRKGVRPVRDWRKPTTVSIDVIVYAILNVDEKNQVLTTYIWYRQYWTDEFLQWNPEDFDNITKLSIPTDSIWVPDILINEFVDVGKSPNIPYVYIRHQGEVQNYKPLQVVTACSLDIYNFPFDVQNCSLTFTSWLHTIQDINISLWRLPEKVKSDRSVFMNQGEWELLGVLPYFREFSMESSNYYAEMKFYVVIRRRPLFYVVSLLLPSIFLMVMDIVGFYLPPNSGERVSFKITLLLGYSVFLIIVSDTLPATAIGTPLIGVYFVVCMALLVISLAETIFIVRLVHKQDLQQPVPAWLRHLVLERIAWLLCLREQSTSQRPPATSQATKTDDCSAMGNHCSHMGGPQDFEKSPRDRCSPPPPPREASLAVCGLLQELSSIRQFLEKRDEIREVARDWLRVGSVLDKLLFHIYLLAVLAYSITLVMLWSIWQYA
# [13] = molecular target: Dual specificity tyrosine-phosphorylation-regulated kinase 1A (Homo sapiens, UniProt Q13627); experiment: Inhibition of DYRK1A (unknown origin) by TR-FRET assay
# Mus musculus [14] = experiment: Inhibition of DYRK1A in mouse at 9 mg/kg relative to control; type: functional
# [15] = molecular target: T3, 5-hydroxytryptamine receptor 4; experiment: Antagonist activity at 5-HT4 receptor (unknown origin)
structure (smiles),measurement,setting,value
CCOCCn1c(CN2CCN(CCCC(c3ccc(F)cc3)c3ccc(F)cc3)CC2)nc2cccnc21,IC50,[1],155 nM
CCC/C=C/COCC(=O)Nc1cccc(-c2nc3cccnc3[nH]2)c1,IC50,[2],73000 nM
CCC/C=C/COCC(=O)Nc1cccc(-c2nc3ncccc3o2)c1,IC50,[2],17000 nM
CCCCN(C)C(=O)Cc1c(-c2ccc(OC)cc2)nc2c(Cl)cc(Cl)cn12,Ki,Translocator protein,0.882 nM
same,IC50,[3],> 10000 nM
O=C(NCCCn1ccnc1)c1ccnc2[nH]c(-c3ccc(C(F)(F)F)cc3)nc12,IC50,[4],13 nM
CCCN(CCC)C(=O)Cc1c(-c2ccc(Cl)cc2)nc2ccc(Cl)cn12 [ALPIDEM],IC50,Translocator protein,7.9 nM
same,Ki,Translocator protein,0.5 to 7 nM
same,IC50,[3],26 nM
CC(C)N1C(=O)N(C(=O)NC2CC3CCC(C2)N3C)C2C=CC=CC21 (stereo not given),EC50,[5],72 nM
CCCN(CCC)C(=O)Cc1c(-c2ccc([N+](=O)[O-])cc2)nc2c(Cl)cc(Cl)cn12,Ki,Translocator protein,0.15 nM
Cn1cnc2cccnc21,logD,[6]; read-out: logD,0.63
same,logP,[7]; read-out: logP,0.63
Fc1ccc(C(CCCN2CCC(Cc3nc4cccnc4n3Cc3cccs3)CC2)c2ccc(F)cc2)cc1,IC50,[1],549 nM
Cc1nc(C2CC2c2nc3ccccn3c2C)cc(-n2nc(C)nc2C)n1 (stereo not given),Ki,[8],2.1 nM
CCCN(CCC)C(=O)Cc1c(-c2ccccc2)nc2ccc([N+](=O)[O-])cn12,IC50,Translocator protein,11.8 nM
same,IC50,[3],2740 nM
Cc1ccc(-c2nc3ccccn3c2NC2CCCCC2)cc1,Ki,Adenosine receptor A1,2060 nM
same,Ki,Adenosine A2 receptor,> 100000 nM
O=C(COc1ccc(-c2ccccc2)cc1)Nc1cccc(-c2nc3cccnc3[nH]2)c1,IC50,[2],13000 nM
c1ccn2cncc2c1,logD,[6]; read-out: logD,0.17
same,logP,[7]; read-out: logP,0.41
Cc1nc2ccc(-c3cc(N)nc(N)c3)nc2n1C1CC1,inhibition in vivo at 3 mg/kg,Mus musculus [9],44%
N[C@H]1CCCC(F)(F)[C@@H]1NC(=O)c1nc(-c2cnc3ccccn23)c(Cl)s1,IC50,[10],720 nM
c1cc2[nH]cnc2cn1,logD,[6]; read-out: logD,0.03
same,logP,[7]; read-out: logP,0.04
O=S(=O)(NCCCn1ccnc1)c1ccnc2[nH]c(-c3ccc(C(F)(F)F)cc3)nc12,IC50,[4],1600 nM
Cn1cnc2cnccc21,logD,[6]; read-out: logD,0.26
same,logP,[7]; read-out: logP,0.27
CCN1C(=O)N(C(=O)NC2CC3CCC(C2)N3C)C2C=CC=CC21 (stereo not given),EC50,[5],360 nM
O=C(COc1ccc(-c2ccccc2)cc1)Nc1cccc(-c2nc3ncccc3o2)c1,IC50,[2],630 nM
Cc1ccc2c(c1)C1CC(C)CCC1N2c1c(C(F)(F)F)nc2c(C)cccn12 (stereo not given),IC50,[11],40000 nM
CCCN(CCC)C(=O)Cc1c(-c2ccc(Cl)cc2)[nH]c2ccc(Cl)cc12,Ki,Translocator protein,3.9 nM
same,IC50,[3],> 1000 nM
O=C1NC2CCCCN2C12CCN(CCCN1c3ccccc3CCc3ccc(Cl)cc31)CC2 (stereo not given) [MOSAPRAMINE],Ki,D(4) dopamine receptor,0.03 nM
Clc1ccc(N2CCN(Cc3cn4ccccc4n3)CC2)cc1Cl,Ki,D(4) dopamine receptor,0.99 nM
Cc1ccc2c(c1)C1CN(C)CCC1N2CCC(=O)N(C)c1c(C(F)(F)F)nc2ccc(C)cn12 (stereo not given),IC50,[11],33000 nM
CCCN(CCC)C(=O)Cc1c(-c2ccc(Cl)cc2)nc2c(NC(=O)CN(Cc3ccccn3)Cc3ccccn3)cccn12,Ki,Translocator protein,293 nM
Cn1nc(N2CCC(OC(=O)N3CCN(C4CCC4)CC3)CC2)ccc1=O [LML-134],Ki,Histamine H3 receptor,12 nM
O=C(NC1CN2CCC1CC2)c1cc(Cl)cn2ccnc12 (stereo not given),IC50,[12],17.5 nM
same,Ki,[12],12 nM
N[C@H]1CCCC(F)(F)[C@@H]1NC(=O)c1cc(-c2cnc3ccccn23)cs1,IC50,[10],15 nM
Cc1nc2ccc(-c3cc(N)nc(N)c3)nc2n1C[C@@H](C)Oc1ccccc1,IC50,[13],8 nM
same,inhibition in vivo at 9 mg/kg,Mus musculus [14],46%
CCSc1ccncc1NC(=O)c1ccnc2[nH]c(-c3ccc(N4CCCC4)cc3)nc12,IC50,[4],3 nM
CCCN(CCC)C(=O)Cn1c(-c2ccc(Cl)cc2)nc2cccnc21,IC50,[3],380 nM
CCCN(CCC)C(=O)Cc1c(-c2ccc(Cl)cc2)nc2c(NC(=O)CCC(=O)OCC)cccn12,Ki,Translocator protein,0.86 nM
Cc1nc2ccc(-c3cc(N)nc(N)c3)nc2n1C(C)C,inhibition in vivo at 3 mg/kg,Mus musculus [9],49%
CCCN(CCC)C(=O)Cc1c(-c2ccc(OC)cc2)nc2c(Cl)cc(Cl)cn12,Ki,Translocator protein,0.537 nM
same,IC50,[3],> 10000 nM
CCCN(CCC)C(=O)Cc1c(-c2ccc(Cl)cc2)nc2c(N)cccn12,Ki,Translocator protein,1.6 nM
CCCCN1CCC(CNC(=O)c2cc(Cl)cn3ccnc23)CC1,IC50,[15],< 10 nM
c1cnc2[nH]cnc2c1,logD,[6]; read-out: logD,0.41
same,logP,[7]; read-out: logP,0.41
CCCN(CCC)C(=O)Cc1c(-c2ccc(Cl)cc2)nc2c(CC(=O)CCCCC(=O)Nc3ccn([C@@H]4O[C@H](CO)[C@@H](O)[C@@H]4O)c(=O)n3)cccn12,IC50,Translocator protein,2.13 nM
COc1ccc(-c2ccnc3[nH]c(-c4ccc(C(=O)N5CCCCC5)cc4)nc23)cc1,IC50,[4],31 nM
CCCN(CCC)C(=O)Cc1c(-c2ccc(Cl)cc2)nc2c(Cl)cc(Cl)cn12 [ALPDEM],Ki,Translocator protein,0.41 nM
Cc1cn2c(N)c(Cl)cc(C(=O)NCC3CCNCC3)c2n1,Ki,[12],26 nM
c1ccn2ccnc2c1,logD,[6],0.73
same,logP,[7],0.41
